Reference: patent US20260072027A1, “Peptides And Method” (Queen Mary University of London, priority 2022, published 2026)
Blank lines part the entries; values can stand above or below the substance they belong to. Where no end group is shown, it is not given here.

Tests used:
CD8+ T-cells (PBMCs) = assay: In vitro peptide stimulation and T-cell proliferation assay, CD8+; format: cell-based, human
Text: (§1) In vitro peptide stimulation and T-cell proliferation assay. Peripheral blood mononuclear cells (PBMCs) were freshly isolated from type 1 diabetes and healthy individuals using Ficoll-Hypaque density gradient centrifugation. PBMCs were labelled with the fluorescent dye CellTrace Violet (Invitrogen, Thermo Fisher Scientific) and cultured (2×10^5 cells/well) in round-bottom 96-well plates (Falcon, Becton Dickinson) with RPMI-1640 medium (Gibco, Thermo Fisher Scientific) supplemented with 5% autologous plasma in the presence or not of insulin peptides (20 μg/ml); PPD (10 μg/ml) and anti-CD3 (0.1 μg/ml; clone OKT3) were used as positive control. Two scrambled peptides: […] (SEQ ID NO: 17), […] (SEQ ID NO: 18), and the Exendin 9-39 fragment were used as negative controls. After 7 days, PBMCs were stained with PE-Cy7 anti-CD8 (clone RPA-T8, BD Pharmingen) and FITC anti-CD3 (clone UCHT1, BD Pharmingen). Samples were analysed by using a FACSCanto II (BD Bioscience) to evaluate T-cell proliferation measured as CellTrace Violet dilution. Cytofluorimetric analyses were performed using FlowJo Software (FlowJo, LLC). The results were given as stimulation index (SI), calculated as percentage of stimulated T-cell subset proliferation/percentage of unstimulated T-cell subset proliferation. Assay for detection of peptide specific T cells subsets was done as previously described (detailed in ESM methods, Assay for detection of peptide specific T cells)
(§2) T-cell stimulation with oxPTM-INSPs. To evaluate the immune cell response against the oxPTM-INSPs, we performed CD4+ and CD8+ T cells proliferation experiments using freshly isolated PBMCs (Study cohort 2, Table 1). Response was calculated as stimulatory index (SI) over unstimulated T-cells.

serum IgG autoantibodies = assay: ELISA for autoantibody detection: serum antibody binding to native and oxPTM insulin peptides; parameters: species or system human; details: for % binders, Healthy controls / Mean ± SEM (absorbance, OD), Healthy controls / % binders, Type 1 diabetes: Study cohort 1; for % binders, Type 1 diabetes: cut-off = mean of healthy controls to Nt-INSP plus 3 SEM; for Mean ± SEM (absorbance, OD), Type 1 diabetes: Study cohort 1 sera; for Antibody reactivity of serum samples (in words): ELISA
Experimental: ELISA for autoantibody detection. The ELISA analysis of Nt-INS and oxPTM-INS autoantibodies was performed as previously described [18](detailed in ESM methods, ELISA assay for antibody detection).
Statistical analyses. Statistical analyses were performed using Prism Software 9.0 (GraphPad, San Diego, CA, USA). Cut-off points of positivity (binders) in the antibody ELISA for each peptide were defined by the mean of optical absorbance (O.D) of healthy controls to the corresponding Nt-INSP plus three times the standard error of the mean (SEM). Specificity and sensitivity were evaluated by receiver operating characteristic (ROC) curve analysis. Area under the curve (AUC) is reported as absolute value and was tested for equality according to DeLong et al. Differences in antibody levels and T-cell stimulation indices (SI) between groups were tested by the One way ANOVA or Student's t-tests as appropriate. Correlation analyses were tested by Pearson or Spearman's test, as appropriate. Categorical analyses were performed by Chi-square or McNemar's tests, as appropriate. For each set of experiments, p values were adjusted for multiple comparison using the Holm-Sidak's test. Hierarchical cluster and Principal Component Analysis (PCA) was done using Clustvis software (https://biit.cs.ut.ee/clustvis/) and Prism Software 9.0, respectively.
Antibody reactivity of type 1 diabetes serum against the candidate oxPTM-INSP. Identified peptide candidates were synthesised and exposed to either HOCl or ^●OH to generate oxPTM-INSPs that were first assessed by TOF-MS/ES+TIC to confirm modification (FIG. 17). Antibody response against native INSPs (Nt-INSPs) and oxPTM-INSPs was evaluated by ELISA using sera from Study cohort 1.
ESM Methods ELISA assay for antibody detection. The ELISA analysis of native (Nt-INS) and modified insulin (oxPTM-INS) was performed as previously described. Briefly, the ELISA plate was coated overnight at 4° C. with 100 μl per well of modified or native insulin in 0.05 M carbonate/bicarbonate buffer pH 9.6 at 10 μg/ml. The next day, the plates were washed 3 times with 0.1% Tween PBS, followed by blocking for 2 hours at room temperature with 200 μl per well of 5% BSA in 0.1% Tween PBS. After washing, 100 μl of 1:200-diluted serum samples in 5% BSA-0.1% Tween PBS were added for additional 2 hours incubation. ELISA plates were then washed 3 times with 0.1% Tween PBS followed by probing with anti-human IgG horse radish peroxidase conjugated (HRP, Sigma) at 1:1,000 dilution in 5% BSA-0.1% Tween PBS for another 1.5 hours incubation. The ELISA plates were washed, and 100 μg/ml TMB substrate in 0.1M sodium acetate pH 6.0 plus 2 μl/10 ml of H2O2, were added. Subsequently, the reaction was stopped with 20% v/v sulphuric acid. The optical density (O.D.) was measured at 450 nm using a GENios plate reader and Magellan software (TECAN, Dorset, UK).

CD4+ T-cells (PBMCs) = assay: In vitro peptide stimulation and T-cell proliferation assay, CD4+; format: cell-based, human
Text: as §1, §2

- % binders, Healthy controls (serum IgG autoantibodies; in silico modifications): 48%
- Mean ± SEM (absorbance, OD), Healthy controls (serum IgG autoantibodies; in silico modifications): 0.423 ± 0.039
- % binders, Type 1 diabetes (serum IgG autoantibodies; in silico modifications): 88%
- Mean ± SEM (absorbance, OD), Type 1 diabetes (serum IgG autoantibodies; in silico modifications): 0.697 ± 0.058
Substance: ERGYYYTPKTR (Ac-ERGYYYTPKTR) [oxPTM-INSP-6 version with a C-terminal arginine]
- CD8+ T-cell response, subjects with SI > 1 (%) (CD8+ T-cells (PBMCs); Controls (N = 11)): (18.2%)
- CD8+ T-cell response, subjects with SI > 3 (%) (CD8+ T-cells (PBMCs); Controls (N = 11)): (9.10%)
- CD8+ T-cell response, subjects with SI > 5 (%) (CD8+ T-cells (PBMCs); Controls (N = 11)): (9.1%)
- CD8+ T-cell response, subjects with SI > 10 (%) (CD8+ T-cells (PBMCs); Controls (N = 11)): (9.1%)
- CD8+ T-cell response, subjects with SI > 1 (%) (CD8+ T-cells (PBMCs); Type 1 diabetes (N = 18)): (55.6%)
- CD8+ T-cell response, subjects with SI > 3 (%) (CD8+ T-cells (PBMCs); Type 1 diabetes (N = 18)): (16.7%)
- CD8+ T-cell response, subjects with SI > 5 (%) (CD8+ T-cells (PBMCs); Type 1 diabetes (N = 18)): (16.7%)
- CD8+ T-cell response, subjects with SI > 10 (%) (CD8+ T-cells (PBMCs); Type 1 diabetes (N = 18)): (16.7%)
- CD4+ T-cell response, subjects with SI > 1 (%) (CD4+ T-cells (PBMCs); Controls (N = 11)): (63.6%)
- CD4+ T-cell response, subjects with SI > 3 (%) (CD4+ T-cells (PBMCs); Controls (N = 11)): (27.3%)
- CD4+ T-cell response, subjects with SI > 5 (%) (CD4+ T-cells (PBMCs); Controls (N = 11)): (0.0%)
- CD4+ T-cell response, subjects with SI > 10 (%) (CD4+ T-cells (PBMCs); Controls (N = 11)): (0.0%)
- CD4+ T-cell response, subjects with SI > 1 (%) (CD4+ T-cells (PBMCs); Type 1 diabetes (N = 18)): (72.2%)
- CD4+ T-cell response, subjects with SI > 3 (%) (CD4+ T-cells (PBMCs); Type 1 diabetes (N = 18)): (38.9%)
- CD4+ T-cell response, subjects with SI > 5 (%) (CD4+ T-cells (PBMCs); Type 1 diabetes (N = 18)): (15.8%)
- CD4+ T-cell response, subjects with SI > 10 (%) (CD4+ T-cells (PBMCs); Type 1 diabetes (N = 18)): (16.7%)

Substance: FVNQHLC [INSP-5, insulin B:1-7 peptide]
- Antibody reactivity of serum samples (in words) (serum IgG autoantibodies): No significant reactivity

- % binders, Healthy controls (serum IgG autoantibodies; in house modifications): 25%
- Mean ± SEM (absorbance, OD), Healthy controls (serum IgG autoantibodies; in house modifications): 0.312 ± 0.019
- % binders, Type 1 diabetes (serum IgG autoantibodies; in house modifications): 43%
- Mean ± SEM (absorbance, OD), Type 1 diabetes (serum IgG autoantibodies; in house modifications): 0.391 ± 0.013
Substance: INSP-6 oxPTM-HOCI: INSP-6 peptide oxidised in house by HOCl (ERGFFYTPKT; not fully specified (N-terminus); also: oxidised by HOCl, modified residues not defined)

- % binders, Healthy controls (serum IgG autoantibodies; in house modifications): 27%
- Mean ± SEM (absorbance, OD), Healthy controls (serum IgG autoantibodies; in house modifications): 0.344 ± 0.022
- % binders, Type 1 diabetes (serum IgG autoantibodies; in house modifications): 58%
- Mean ± SEM (absorbance, OD), Type 1 diabetes (serum IgG autoantibodies; in house modifications): 0.539 ± 0.068
Substance: INSP-4 oxPTM-•OH: INSP-4 peptide oxidised in house by hydroxyl radical (LVEALYLVCGERGFFYTPKT; also: oxidised by hydroxyl radical, modified residues not defined)

- type 1 diabetes binders (IgG autoantibody reactivity) (serum IgG autoantibodies; Study cohort 2, N = 18): 33.3%
Substance: Nt-INS: native human recombinant insulin

- Antibody reactivity of serum samples (in words) (serum IgG autoantibodies): No significant reactivity
Substance: YLVCGERGFF [INSP-1, insulin B:16-25 peptide]

- % binders, Healthy controls (serum IgG autoantibodies; in silico modifications): 25%
- Mean ± SEM (absorbance, OD), Healthy controls (serum IgG autoantibodies; in silico modifications): 0.351 ± 0.044
- % binders, Type 1 diabetes (serum IgG autoantibodies; in silico modifications): 100%
- Mean ± SEM (absorbance, OD), Type 1 diabetes (serum IgG autoantibodies; in silico modifications): 0.556 ± 0.031
Substance: ERGYYYTPKT (Ac-ERGYYYTPKT) [in silico designed oxPTM-INSP-6 derivative]
- CD8+ T-cell response, subjects with SI > 1 (%) (CD8+ T-cells (PBMCs); Controls (N = 11)): (27.3%)
- CD8+ T-cell response, subjects with SI > 3 (%) (CD8+ T-cells (PBMCs); Controls (N = 11)): (18.2%)
- CD8+ T-cell response, subjects with SI > 5 (%) (CD8+ T-cells (PBMCs); Controls (N = 11)): (18.2%)
- CD8+ T-cell response, subjects with SI > 10 (%) (CD8+ T-cells (PBMCs); Controls (N = 11)): (9.1%)
- CD8+ T-cell response, subjects with SI > 1 (%) (CD8+ T-cells (PBMCs); Type 1 diabetes (N = 18)): (22.2%)
- CD8+ T-cell response, subjects with SI > 3 (%) (CD8+ T-cells (PBMCs); Type 1 diabetes (N = 18)): (11.1%)
- CD8+ T-cell response, subjects with SI > 5 (%) (CD8+ T-cells (PBMCs); Type 1 diabetes (N = 18)): (11.1%)
- CD8+ T-cell response, subjects with SI > 10 (%) (CD8+ T-cells (PBMCs); Type 1 diabetes (N = 18)): (5.6%)
- CD4+ T-cell response, subjects with SI > 1 (%) (CD4+ T-cells (PBMCs); Controls (N = 11)): (36.4%)
- CD4+ T-cell response, subjects with SI > 3 (%) (CD4+ T-cells (PBMCs); Controls (N = 11)): (18.2%)
- CD4+ T-cell response, subjects with SI > 5 (%) (CD4+ T-cells (PBMCs); Controls (N = 11)): (9.1%)
- CD4+ T-cell response, subjects with SI > 10 (%) (CD4+ T-cells (PBMCs); Controls (N = 11)): (0.0%)
- CD4+ T-cell response, subjects with SI > 1 (%) (CD4+ T-cells (PBMCs); Type 1 diabetes (N = 18)): (50.0%)
- CD4+ T-cell response, subjects with SI > 3 (%) (CD4+ T-cells (PBMCs); Type 1 diabetes (N = 18)): (22.2%)
- CD4+ T-cell response, subjects with SI > 5 (%) (CD4+ T-cells (PBMCs); Type 1 diabetes (N = 18)): (0.0%)
- CD4+ T-cell response, subjects with SI > 10 (%) (CD4+ T-cells (PBMCs); Type 1 diabetes (N = 18)): (0.0%)

- % binders, Healthy controls (serum IgG autoantibodies; in house modifications): 86%
- Mean ± SEM (absorbance, OD), Healthy controls (serum IgG autoantibodies; in house modifications): 0.617 ± 0.042
- % binders, Type 1 diabetes (serum IgG autoantibodies; in house modifications): 86%
- Mean ± SEM (absorbance, OD), Type 1 diabetes (serum IgG autoantibodies; in house modifications): 0.667 ± 0.044
- Mean ± SEM (absorbance, OD), Type 1 diabetes (serum IgG autoantibodies; in house modifications, listed as ●OH-modified oxPTM-INSP-3): 0.667±0.044
Substance: INSP-3 oxPTM-•OH: INSP-3 peptide oxidised in house by hydroxyl radical (SLYQLENYCN; not fully specified (N-terminus); also: oxidised by hydroxyl radical, modified residues not defined)
